Data taken from article PMC7381267, “A Bromodomain-Containing Protein 4 (BRD4) Inhibitor Suppresses Angiogenesis by Regulating AP-1 Expression” (Frontiers in Pharmacology, 2020).
Read-outs that look alike come from different tables or passages of the source.

What was measured:
[1] = test system: chick embryo CAM vasculature; assay: Chick embryo chorioallantoic membrane (CAM) anti-angiogenesis assay; type: in vivo; details: 48 h; for Inhibitory effect on microvessel density (MVD) / Inhibitory effect on MVD compared with (+)-JQ1 / Positive Ratio: 50 μg/ml; for Inhibitory effect on microvessel density (MVD) / Inhibition of MVD compared to DMSO / Inhibitory effect on MVD compared with (+)-JQ1 / Inhibitory efficacy on MVD compared with (+)-JQ1: CAM; for Inhibitory effect on microvessel density (MVD) / Inhibitory effect on MVD compared with (+)-JQ1: Figure 1C; for Inhibition of MVD compared to DMSO: 25, 50 and 100 μM, Figure 2F; for Anti-angiogenic activity, egg number 1: egg 1; for Anti-angiogenic activity, egg number 3: egg 3; for Anti-angiogenic activity, egg number 5: egg 5; for Inhibitory efficacy on MVD compared with (+)-JQ1: at each of 25, 50 and 100 μM; for Positive Ratio: embryos with ++ and +++ compared with total number of embryos; for Anti-angiogenic activity, egg number 2: egg 2; for Anti-angiogenic activity, egg number 4: egg 4
Experimental: Fertilized white leghorn chicken eggs were obtained from the Avian Farm of South China Agriculture University (Guangzhou, China) and the shells were cleaned with 1% geramine. […] A small window (10 × 10 mm^2) was cut above the air chamber of egg while the chick embryo was growing through the ninth day. BET family member inhibitors or DMSO (dissolved in 30 µl of phosphate-buffered saline [PBS, pH 7.4]) were placed directly onto the live chick embryo CAM through the window at the indicated concentrations and incubated for 48 h. Then, the eggshells were cut carefully along the axis of the median line, and the content was discarded. The CAM vasculature around the eggshell windows was observed and photographed under a stereomicroscope (Olympus SZX16). The microvessel density (MVD) was calculated as the percentage of blood vessel area in the total drug-treated area using the Image-Pro Plus 6.0 software (IPP 6.0, Media Cybernetics, Inc., Rockville MD, USA).
The effects of all these selected compounds on angiogenesis were first determined through use of the chick embryo CAM model. […] Each of the compounds (50 μg/ml) was added to the CAM of 9-day-old chick embryos for 48 h. The CAMs of chick embryos were photographed, and the inhibition ratio indicating angiogenesis was calculated and analyzed. […] An inhibitory effect observable but not obvious on the generation of third-grade vessels was indicated by “+”; an obvious medium-level inhibitory effect on secondary vessels was indicated by “++”; and an obvious potent inhibitory effect on primary blood vessels was indicated by “+++”.

chick embryo YSM vessels = assay: Chick embryo yolk sac membrane (YSM) anti-angiogenesis assay; type: in vivo; details: 100 μM, 24 h; for Blood vessel density and number of blood vessels compared with DMSO: YSM of 3-day-old chick embryos
Experimental: On the third day of incubation, the well-developed live chicken embryos were carefully transferred into sterilized dishes, and the chick embryo vessels were arranged to face upward. Color marked silastic rings were symmetrically placed onto the top of the vessel regions of the yolk sac membrane and incubated for 3 h in the incubator. Then, 100 μM BET family member inhibitors or DMSO (dissolved in 30 µl of PBS, pH 7.4) was added into the center of the rings and cultured in the incubator for 24 h. Images of the vessels in the silastic rings were captured at 0 and 24 h, respectively. The images were quantitatively analyzed by Image-Pro Plus 6.0, and then the number of blood vessels 24 h after drug treatment and the MVD at 0 and 24 h were quantified using IPP 6.0. The growth rate in the DMSO-treated silica gel circle was considered to be one.

HUVECs [2] = assay: Cell viability by CCK-8 assay; type: cell-based, human; details: for Cell viability compared with DMSO or (−)-JQ1: 8.5 μM, 96 h; for IC50: Homo sapiens, HUVEC, read-out: 50% inhibition concentration of cell viability
Experimental: Cell viability after BET family member inhibitor treatment was evaluated by CCK-8 assay. HUVECs were seeded in 96-well plates at a density of 2,000 cells/well. Twenty-four hours later, the BET family member inhibitors, (−)-JQ1 (negative control drug) and DMSO (solvent group) were added at the indicated concentrations. […] The absorbance was evaluated at 450 nm to determine cell viability.
Furthermore, (−)-JQ1 was employed as a negative control, and DMSO was employed as a solvent control. […].

[3] = test system: c-jun and c-fos (AP-1) in HUVECs; assay: Immunoblot of AP-1 components; type: cell-based, human; details: 48 h
Experimental: Then, the proteins of these cells were extracted using RIPA buffer and separated by 10% (w/v) sodium dodecyl sulphate-polyacrylamide gel electrophoresis (SDS-PAGE). The separated proteins were transferred onto a polyvinylidene fluoride (PVDF) membrane (Millipore, MA, USA) and blocked using 5% (w/v) non-fat powder milk at room temperature. Next, the membranes were incubated in the relative primary antibody and horseradish peroxidase (HRP)-conjugated secondary antibodies. Then, the Image Quant LAS 4000 system (GE Healthcare, Waukesha, WI, USA) was used for the direct visualization of the membranes. The protein bands were densitometrically quantified using Quantity-One protein analysis software (Bio-Rad Laboratories, Hercules, CA, USA). The relative expression of the proteins was normalized to the expression of glyceraldehyde-3-phosphate dehydrogenase (GAPDH).
[…]. […] […].

HUVECs [4] = assay: Tube formation assay; details: 8.5 μM, 48 h pretreatment, then 5 h on Matrigel
Experimental: The circumference of the formed tubes was measured under an inverted light microscope.

BRD2 BD1 = target: T1, BRD2 BD1 (Homo sapiens, UniProt P25440); assay: TR-FRET assay, BRD2 BD1; type: binding
T1 construct: purchased Cayman Chemical
T1 sequence (P25440 74-180 limits assumed): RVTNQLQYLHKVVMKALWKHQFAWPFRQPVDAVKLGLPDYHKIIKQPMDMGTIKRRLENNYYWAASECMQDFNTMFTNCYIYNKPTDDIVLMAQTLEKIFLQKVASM
Experimental: (§1) The specificity of the designed and synthesized compounds for BRD4 was also evaluated through comparison with those for BRD2.
(§2) As acetylated histone peptides are known substrates for bromodomain-containing proteins, we initially screened the complexes for their ability to modulate the protein–protein interaction between acetylated lysine and BET family members. […] Then, the IC50 of the compounds that prevent BRD4 (BD1 or BD2)/BRD2 (BD1 or BD2) and acetylated histone interactions was calculated by TR-FRET assay in vitro.

BRD2 BD2 = target: T2, BRD2 BD2 (Homo sapiens, UniProt P25440); assay: TR-FRET assay, BRD2 BD2; type: binding
T2 construct: purchased Cayman Chemical
T2 sequence (P25440 344-453 limits assumed): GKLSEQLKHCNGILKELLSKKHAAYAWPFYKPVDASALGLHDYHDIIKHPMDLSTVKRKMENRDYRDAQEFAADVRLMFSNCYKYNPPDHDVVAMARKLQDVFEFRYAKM
Experimental: as §1, §2

BRD4 BD1 = target: T3, BRD4 BD1 (Homo sapiens, UniProt O60885); assay: TR-FRET assay, BRD4 BD1; type: binding
T3 construct: purchased Cayman Chemical
Experimental: as §1, §2

BRD4 BD2 = target: T4, BRD4 BD2 (Homo sapiens, UniProt O60885); assay: TR-FRET assay, BRD4 BD2; type: binding
T4 construct: purchased Cayman Chemical
Experimental: as §1, §2

H3K122Ac = test system: H3K122Ac; parameters: method as in Liu et al., 2020; details: ref Liu et al., 2020; cited from earlier work
[5] = 50 μg/ml on CAM of 9-day-old chick embryos

Cc1sc2c(c1C)C(c1ccc(Cl)cc1)=N[C@@H](CC(=O)OC(C)(C)C)c1nnc(C)n1-2 [(+)-JQ1 (1), reference compound]
Inhibitory effect on microvessel density (MVD) [1]: most impressive inhibitory effect on MVD
Inhibition of MVD compared to DMSO [1]: significantly inhibited MVD in a concentration-dependent manner
Blood vessel density and number of blood vessels compared with DMSO (chick embryo YSM vessels): significantly reduced
Cell viability compared with DMSO or (−)-JQ1 (HUVECs [2]; HUVECs): significantly suppressed cell viability
IC50 (HUVECs [2]): 5000 nM
Expression of c-jun compared with DMSO [3]: significantly inhibited the expression of c-jun
Phosphorylation of c-jun and c-fos compared with DMSO [3]: significantly inhibited
Tube formation (tube circumference) compared with DMSO (HUVECs [4]): reduction in tube circumference

COc1cc(OC)c2c(=O)cc(-c3ccc(OCC(O)CN4CCCCC4)cc3)oc2c1 (stereo not drawn) [HJC5100(16)]
Anti-angiogenic activity, egg number 1 [1, 5]: +
Anti-angiogenic activity, egg number 3 [1, 5]: +

Cc1cc(/N=N/c2ccc(S(=O)(=O)Nc3ccccn3)cc2)c(N)cc1O [MS436 (3), reference compound]
Anti-angiogenic activity, egg number 5 [1, 5]: +
Inhibitory effect on MVD compared with (+)-JQ1 [1]: better than that of the (+)-JQ1 positive control
Inhibitory effect on microvessel density (MVD) [1]: most impressive inhibitory effect on MVD
Inhibition of MVD compared to DMSO [1]: significantly inhibited MVD in a concentration-dependent manner
Inhibitory efficacy on MVD compared with (+)-JQ1 [1]: stronger inhibitory efficacy than (+)-JQ1
IC50 (BRD2 BD1): 797 nM
IC50 (BRD2 BD2): 846 nM

CC(C)(C)c1cc(-c2nnc(-c3cc(F)c(F)c(F)c3)o2)no1 [ZL0164(4)]
Anti-angiogenic activity, egg number 5 [1, 5]: +
Positive Ratio [1]: 2/5

Cc1cc(N=Nc2ccc(S(=O)(=O)N3CCCC3)cc2)c(N)cc1O [ZL0452(5)]
Anti-angiogenic activity, egg number 2 [1, 5]: +
Anti-angiogenic activity, egg number 4 [1, 5]: +
Positive Ratio [1]: 1/4

Cc1cc(N=Nc2ccc(S(=O)(=O)NC3CCCC3)cc2)cc(C)c1O [ZL0453(6)]
Anti-angiogenic activity, egg number 1 [1, 5]: +
Anti-angiogenic activity, egg number 4 [1, 5]: +
Anti-angiogenic activity, egg number 5 [1, 5]: +
Positive Ratio [1]: 1/5

Cc1cc(/N=N/c2ccc(S(=O)(=O)NC3CCCC3)cc2)c(N)cc1O [ZL0454 (2)]
Anti-angiogenic activity, egg number 5 [1, 5]: +
Inhibitory effect on microvessel density (MVD) [1]: most impressive inhibitory effect on MVD
Inhibition of MVD compared to DMSO [1]: significantly inhibited MVD in a concentration-dependent manner
Inhibitory efficacy on MVD compared with (+)-JQ1 [1]: stronger inhibitory efficacy than (+)-JQ1

COc1cc(OC)c2c(=O)cc(-c3cc(C)c(OC[C@H](O)CN4CCCCC4)c(C)c3)oc2c1 [ZL0513 (7)]
Anti-angiogenic activity, egg number 4 [1, 5]: +
Inhibitory effect on MVD compared with (+)-JQ1 [1]: better than that of the (+)-JQ1 positive control
Inhibitory effect on microvessel density (MVD) [1]: most impressive inhibitory effect on MVD
Positive Ratio [1]: 4/5
Inhibition of MVD compared to DMSO [1]: significantly inhibited MVD in a concentration-dependent manner
Inhibitory efficacy on MVD compared with (+)-JQ1 [1]: stronger inhibitory efficacy than (+)-JQ1
Inhibition efficacy on angiogenesis in YSM compared with (+)-JQ1 (chick embryo YSM vessels): significantly higher than that of (+)-JQ1 (1) treatment
Blood vessel density and number of blood vessels compared with DMSO (chick embryo YSM vessels): significantly reduced
Selectivity window to BRD4 over BRD2 (BRD4 BD1; BRD4 versus BRD2): 10 fold
IC50 (BRD4 BD1; TR-FRET): 67 nM
IC50 (BRD4 BD2): 684 nM
IC50 (BRD2 BD1): 791 nM
IC50 (BRD2 BD2): 845 nM
Cell viability compared with DMSO or (−)-JQ1 (HUVECs [2]; HUVECs): significantly suppressed cell viability
IC50 (HUVECs [2]; HUVECs, CCK-8, concentration range 0.3 to 15 μM): 8500 nM
Expression of c-jun compared with DMSO [3]: significantly inhibited the expression of c-jun
Phosphorylation of c-jun and c-fos compared with DMSO [3]: significantly inhibited
Effect on poly(I:C)-induced H3K122Ac (H3K122Ac): block poly(I:C)-induced H3K122Ac
Tube formation (tube circumference) compared with DMSO (HUVECs [4]): reduction in tube circumference

Cc1cc(N=Nc2ccc3c(c2)CCC(=O)N3)c(N)cc1O [ZL0518(8)]
Anti-angiogenic activity, egg number 6 ([1]; 50 μg/ml on CAM of 9-day-old chick embryos, egg 6): +
Positive Ratio [1]: 1/3

COc1cc(OC)c2c(=O)cc(-c3ccc(OCC4CO4)cc3)oc2c1 (stereo not drawn) [ZL0519 (9)]
Positive Ratio [1]: 3/4

COC(=O)C1CCCN1S(=O)(=O)c1ccc(NC(=O)c2ccc(C(F)(F)F)cc2)cc1 (stereo not drawn) [ZL0520(10)]
Anti-angiogenic activity, egg number 1 [1, 5]: +
Anti-angiogenic activity, egg number 4 [1, 5]: +
Positive Ratio [1]: 1/5

Cc1ccc(S(=O)(=O)OC[C@@H]2CCCN2S(=O)(=O)c2ccc(NC(=O)Nc3ccc(C(F)(F)F)cc3)cc2)cc1 [ZL0586(12)]
Anti-angiogenic activity, egg number 2 [1, 5]: +
Anti-angiogenic activity, egg number 3 [1, 5]: +
Anti-angiogenic activity, egg number 5 [1, 5]: +
Positive Ratio [1]: 2/5

O=C(Nc1ccc(C(F)(F)F)cc1)N1CCN(c2ccc(O)cc2)CC1 [ZL0589(14)]
Anti-angiogenic activity, egg number 5 [1, 5]: +
Positive Ratio [1]: 2/5

N#CC(=NNc1ccc2c(c1)CCC(=O)N2)C(=O)c1ccc(OC(F)(F)F)cc1 [ZL0593(15)]
Anti-angiogenic activity, egg number 3 [1, 5]: +
Positive Ratio [1]: 3/5
